Test results from US6737383B1, “Herbicidal oxadiazolidines” (priority 1999, dated 2004).

What was measured:
corn = experiment: Test B pre/postemergence corn; format: in vivo, Zea mays
Outline: (§1)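 Response is a visual 0-to-10 score relative to untreated plants, where 0 means no effect and 10 means complete control, taken twelve to sixteen days after application. Treatments went onto soil at planting and onto foliage of 1- to 4-leaf plants, using a surfactant-containing non-phytotoxic solvent.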

giant foxtail = experiment: Test B pre/postemergence giant foxtail; format: in vivo, Setaria faberii
Outline: as §1

purple nutsedge = experiment: Test B pre/postemergence purple nutsedge; format: in vivo, Cyperus rotundus
Outline: as §1

wheat = experiment: Test B pre/postemergence wheat; format: in vivo, Triticum aestivum
Outline: as §1

morningglory = experiment: Test B pre/postemergence morningglory; format: in vivo, Ipomoea hederacea
Outline: as §1

smallflower flatsedge = experiment: Test B flood test smallflower flatsedge; format: in vivo, Cyperus difformis; details: Pre-emergence
Outline: (§2)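 Flood test on plants grown to the 2-leaf stage; treated plants kept in greenhouse twelve to sixteen days, then visually rated against controls on a 0 (no effect) to 10 (complete control) scale.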

bedstraw = experiment: Test B pre/postemergence bedstraw; format: in vivo, Galium aparine
Outline: as §1

wild oat = experiment: Test B pre/postemergence wild oat; format: in vivo, Avena fatua
Outline: as §1

cocklebur = experiment: Test B pre/postemergence cocklebur; format: in vivo, Xanthium strumarium
Outline: as §1

blackgrass = experiment: Test B pre/postemergence blackgrass; format: in vivo, Alopecurus myosuroides
Outline: as §1

surinam grass = experiment: Test B pre/postemergence surinam grass; format: in vivo, Brachiaria decumbens
Outline: as §1

velvetleaf = experiment: Test B pre/postemergence velvetleaf; format: in vivo, Abutilon theophrasti
Outline: as §1

bamyardgrass = experiment: Test B flood test barnyardgrass; format: in vivo, Echinochloa crus-galli; details: Pre-emergence
Outline: as §2

duck salad = experiment: Test B flood test duck salad; format: in vivo, Heteranthera limosa; details: Pre-emergence
Outline: as §2

rice = experiment: Test B flood test rice; format: in vivo, Oryza sativa; details: Pre-emergence
Outline: as §2

crabgrass = experiment: Test B pre/postemergence crabgrass; format: in vivo, Digitaria sanguinalis
Outline: as §1

[1] = Preemergence, Rate 62 g/ha, scale of 0 to 10 where 0 is no effect and 10 is complete control
[2] = Preemergence, Rate 250 g/ha, scale of 0 to 10 where 0 is no effect and 10 is complete control
[3] = Preemergence, Rate 500 g/ha, scale of 0 to 10 where 0 is no effect and 10 is complete control
[4] = Rate 62 g/ha, Postemergence, scale 0 to 10, 0 no effect, 10 complete control
[5] = Rate 125 g/ha, Postemergence, scale of 0 to 10 where 0 is no effect and 10 is complete control
[6] = Rate 250 g/ha, Postemergence, scale of 0 to 10 where 0 is no effect and 10 is complete control
[7] = Rate 500 g/ha, Postemergence, scale 0 to 10, 0 no effect, 10 complete control
[8] = Rate 1000 g/ha, scale 0 to 10 (0 no effect, 10 complete control)
[9] = Rate 125 g/ha, flood test species, scale 0 to 10 where 0 is no effect and 10 is complete control
[10] = Rate 250 g/ha, flood-test species, scale 0 to 10, 0 is no effect, 10 is complete control
[11] = Rate 500 g/ha, flood test species, scale 0 to 10 (0 no effect, 10 complete control)

Cc1ccccc1-n1c(=O)on(C(=O)N(c2ccc3ccccc3c2)C(C)C)c1=O [Compound 306]
Corn plant response rating (corn; [1]): 0
Corn plant response rating (0 to 10 scale) (corn; Preemergence, Rate 125 g/ha): 0
Corn plant response rating (corn; [2]): 0
Corn plant response rating (corn; [3]): 0
Corn plant response rating (corn; [4]): 0
Corn plant response rating (corn; [5]): 0
Plant response rating, Corn (corn; [6]): 0
Corn plant response rating (corn; [7]): 0
Giant foxtail plant response rating (giant foxtail; [1]): 2
Giant foxtail plant response rating (0 to 10 scale) (giant foxtail; Preemergence, Rate 125 g/ha): 2
Giant foxtail plant response rating (giant foxtail; [2]): 8
Giant foxtail plant response rating (giant foxtail; [3]): 9
Giant foxtail plant response rating (giant foxtail; [4]): 0
Giant foxtail plant response rating (giant foxtail; [5]): 0
Plant response rating, Giant foxtail (giant foxtail; [6]): 0
Nutsedge plant response rating (purple nutsedge; [1]): 0
Nutsedge plant response rating (0 to 10 scale) (purple nutsedge; Preemergence, Rate 125 g/ha): 0
Nutsedge plant response rating (purple nutsedge; [2]): 0
Nutsedge plant response rating (purple nutsedge; [3]): 0
Nutsedge plant response rating (purple nutsedge; [4]): 0
Nutsedge plant response rating (purple nutsedge; [5]): 0
Plant response rating, Nutsedge (purple nutsedge; [6]): 0
Wheat plant response rating (wheat; [1]): 0
Wheat plant response rating (0 to 10 scale) (wheat; Preemergence, Rate 125 g/ha): 0
Wheat plant response rating (wheat; [2]): 0
Wheat plant response rating (wheat; [3]): 0
Wheat plant response rating (wheat; [4]): 0
Wheat plant response rating (wheat; [5]): 0
Plant response rating, Wheat (wheat; [6]): 0
Morningglory plant response rating (morningglory; [1]): 0
Morningglory plant response rating (0 to 10 scale) (morningglory; Preemergence, Rate 125 g/ha): 0
Morningglory plant response rating (morningglory; [2]): 0
Morningglory plant response rating (morningglory; [3]): 0
Morningglory plant response rating (morningglory; [4]): 2
Morningglory plant response rating (morningglory; [5]): 2
S. Flatsedge plant response rating (smallflower flatsedge; [8]): 0
S. Flatsedge plant response rating (smallflower flatsedge; [9]): 0
S. Flatsedge plant response rating (smallflower flatsedge; [10]): 0
S. Flatsedge plant response rating (smallflower flatsedge; [11]): 0
Bedstraw plant response rating (bedstraw; [1]): 0
Bedstraw plant response rating (0 to 10 scale) (bedstraw; Preemergence, Rate 125 g/ha): 0
Bedstraw plant response rating (bedstraw; [2]): 0
Bedstraw plant response rating (bedstraw; [3]): 0
Bedstraw plant response rating (bedstraw; [4]): 0
Bedstraw plant response rating (bedstraw; [5]): 0
Plant response rating, Bedstraw (bedstraw; [6]): 0
Bedstraw plant response rating (bedstraw; [7]): 0
Wild oats plant response rating (wild oat; [1]): 0
Wild oats plant response rating (0 to 10 scale) (wild oat; Preemergence, Rate 125 g/ha): 0
Wild oats plant response rating (wild oat; [2]): 0
Wild oats plant response rating (wild oat; [3]): 0
Wild oats plant response rating (wild oat; [4]): 0
Wild oats plant response rating (wild oat; [5]): 0
Plant response rating, Wild oats (wild oat; [6]): 0
Cocklebur plant response rating (cocklebur; [1]): 0
Cocklebur plant response rating (0 to 10 scale) (cocklebur; Preemergence, Rate 125 g/ha): 0
Cocklebur plant response rating (cocklebur; [2]): 0
Cocklebur plant response rating (cocklebur; [3]): 0
Cocklebur plant response rating (cocklebur; [4]): 0
Cocklebur plant response rating (cocklebur; [5]): 0
Plant response rating, Cocklebur (cocklebur; [6]): 0
Cocklebur plant response rating (cocklebur; [7]): 0
Blackgrass plant response rating (blackgrass; [1]): 0
Blackgrass plant response rating (0 to 10 scale) (blackgrass; Preemergence, Rate 125 g/ha): 0
Blackgrass plant response rating (blackgrass; [2]): 0
Blackgrass plant response rating (blackgrass; [3]): 0
Blackgrass plant response rating (blackgrass; [4]): 0
Blackgrass plant response rating (blackgrass; [5]): 0
Plant response rating, Blackgrass (blackgrass; [6]): 0
Blackgrass plant response rating (blackgrass; [7]): 0
B. signalgrass plant response rating (surinam grass; [1]): 0
B. signalgrass plant response rating (0 to 10 scale, 0 is no effect, 10 is complete control) (surinam grass; Preemergence, Rate 125 g/ha): 0
B. signalgrass plant response rating (surinam grass; [2]): 0
B. signalgrass plant response rating (surinam grass; [3]): 0
B. signalgrass plant response rating (surinam grass; [4]): 0
B. signalgrass plant response rating (surinam grass; [5]): 0
Plant response rating, B. signalgrass (surinam grass; [6]): 0
B. signalgrass plant response rating (surinam grass; [7]): 0
Velvetleaf plant response rating (velvetleaf; [1]): 0
Velvetleaf plant response rating (0 to 10 scale) (velvetleaf; Preemergence, Rate 125 g/ha): 0
Velvetleaf plant response rating (velvetleaf; [2]): 0
Velvetleaf plant response rating (velvetleaf; [3]): 0
Velvetleaf plant response rating (velvetleaf; [4]): 0
Velvetleaf plant response rating (velvetleaf; [5]): 0
Plant response rating, Velvetleaf (velvetleaf; [6]): 0
Barnyardgrass plant response rating (bamyardgrass; [8]): 0
Barnyardgrass plant response rating (bamyardgrass; [9]): 0
Barnyardgrass plant response rating (bamyardgrass; [10]): 0
Barnyardgrass plant response rating (bamyardgrass; [11]): 0
Ducksalad plant response rating (duck salad; [8]): 0
Ducksalad plant response rating (duck salad; [9]): 0
Ducksalad plant response rating (duck salad; [10]): 0
Ducksalad plant response rating (duck salad; [11]): 0
Rice plant response rating (rice; [8]): 0
Rice plant response rating (rice; [9]): 0
Rice plant response rating (rice; [10]): 0
Rice plant response rating (rice; [11]): 0
Crabgrass plant response rating (crabgrass; [1]): 0
Crabgrass plant response rating (0 to 10 scale) (crabgrass; Preemergence, Rate 125 g/ha): 0
Crabgrass plant response rating (crabgrass; [2]): 0
Crabgrass plant response rating (crabgrass; [3]): 0
Crabgrass plant response rating (crabgrass; [4]): 0
Crabgrass plant response rating (crabgrass; [5]): 0
Plant response rating, Crabgrass (crabgrass; [6]): 0
